Results on ten compounds are retold here after US11304431B2, “Sweetener and flavor compositions, methods of making and methods of use thereof” (EPC Natural Products Co., Ltd., priority 2018, dated 2022).

The conditions of data set [1]: sweetness depends on the tested concentration compared with sucrose; cited from earlier work.
Data set [2] can be described thus: HPLC/DAD/MS of Maillard reaction intermediates (MRI, Amadori products), unreacted partners and degradation kinetics at various pH. The conditions noted are these: 120 °C; for % formation from degraded Phe: n.d. = not detected.
Experimental: For HPLC analysis the reacted samples were injected after filtration (2 μm syringe filters).
Mobile Phase A consisted of a 0.1% formic acid in water. Mobile Phase B consisted of 0.1% formic acid in acetonitrile. […] Injection volume was set to 20 μl.
The mobile phase consisted of (A) 0.1% HCOOH (v/v) and (B) AcCN. A gradient of 5% (B) to 15% (B) was applied between 0 min to 15 min. Between 15 and 20 min (B) was increased to 45% which was kept for 5 min. Detection consisted of UV/VIS-DAD (205 nm, 254 nm, 450 nm) coupled to ESI-MS (pos mode, 300° C., TIC from m/z 120-1200, fragmentor 100).
Quantitative evaluation was performed using external standardization.
Data set [3] is described as follows: DPPH radical-scavenging activity (Example 65). The conditions noted are these: Reb-A 10 mM with or without amino acid, 100° C., 0-5 hours, diluted 1:10; FIG. 49 and 50. As for the experimental part:
1 mg 1,1-Diphenyl-2-picrylhydrazyl radical (DPPH)/ml ethanol, dilution to assay concentration were prepared in ethanol (40 μg/mL); Calibration samples were prepared with Ascorbic acid in a concentration of 0-10 μg/mL; as a negative control sample, water was used.
Samples in aqueous solution were used as such or diluted with water.
A 0.1 ml sample (or calibration standard) was mixed with 3.9 ml solution of DPPH (100 μMolar) and reacted while protected from light at room temperature for 30 min. Absorbance was determined at 517 nm against ethanol.
10 mM of amino acid and/or 10 mM sugar were dissolved in 10 ml 0.1 mM KH2PO4-buffer, pH=7.8.
The samples were kept at 100° C. in sealed glass vials (Pyrex 15 ml with screw caps) for 0 (before reaction), 2.5 or 5.0 hours. Thereafter the samples were transferred to an ice water bath and cooled down to room temperature. These samples were diluted 1:10 and used for the test assay for anti-oxidant potential.
Background: DPPH is a stable violet radical that fades when it is reduced.

The mark [4] stands for this setting: reaction of Phe and Suc, pH = 5.5, 1.0 h.

Each structure is given as a SMILES string. Residues, ends and D or L forms follow the SMILES beside them.

With `COC(=O)[C@H](Cc1ccccc1)NC(=O)[C@@H](N)CC(=O)O` [Aspartame] (H-Asp-Phe-OMe), the “times sweeter than sucrose (sugar, cane sugar)” value (“times sweeter than sucrose” for short) in data set [1] is 160-200 times.

Consider `O=C(O)[C@H](Cc1ccccc1)NCC(=O)[C@@H](O)[C@H](O)[C@H](O)CO` [MRI (Phe-Glu)], for which the “% formation from degraded Phe” value is under 0.10% in data set [2] (setting [4]); 0.54% in data set [2] (reaction of Phe and Suc, pH = 7.0, 1.0 h); 0.84% in data set [2] (reaction of Phe and Suc, pH = 8.5, 1.0 h).

Turning to `OC[C@@H](O)[C@@H](O)[C@H](O)[C@H](O)CO` [Mannitol], in data set [1], the “times sweeter than sucrose” value is listed as 0.55-0.65 times.

Take `N[C@H](Cc1ccccc1)C(=O)O` [Phe]: the “% degradation” value in data set [2] (setting [4]) is 5.50%; in data set [2] (reaction of Phe and Xyl, pH = 7.0, 1.0 h), 4.80%.

Consider `C=C1C[C@@]23CC[C@H]4[C@@](C)(CCC[C@@]4(C)C(=O)O[C@@H]4O[C@H](CO)[C@@H](O)[C@H](O)[C@H]4O)[C@@H]2CC[C@]1(O[C@@H]1O[C@H](CO)[C@@H](O)[C@H](O[C@@H]2O[C@H](CO)[C@@H](O)[C@H](O)[C@H]2O)[C@H]1O[C@@H]1O[C@H](CO)[C@@H](O)[C@H](O)[C@H]1O)C3` [Reb-A, Rebaudioside A], for which the anti-oxidant properties result in data set [3] is given as “substantial anti-oxidant properties”.

Consider `C=C1C[C@@]23CC[C@H]4[C@@](C)(CCC[C@@]4(C)C(=O)O[C@@H]4O[C@H](CO)[C@@H](O)[C@H](O)[C@H]4O)[C@@H]2CC[C@]1(O[C@@H]1O[C@H](CO)[C@@H](O)[C@H](O)[C@H]1O)C3` [Rubusoside], for which the “times sweeter than sucrose” value in data set [1] is 200 times.

On to `C[C@H](CC[C@@H](O[C@@H]1O[C@H](CO)[C@@H](O)[C@H](O)[C@H]1O[C@@H]1O[C@H](CO)[C@@H](O)[C@H](O)[C@H]1O)C(C)(C)O)[C@H]1CC[C@@]2(C)[C@H]3CC=C4[C@@H](CC[C@H](O[C@@H]5O[C@H](CO[C@@H]6O[C@H](CO)[C@@H](O)[C@H](O)[C@H]6O)[C@@H](O)[C@H](O)[C@H]5O)C4(C)C)[C@]3(C)[C@H](O)C[C@]12C` [mogroside IV], for which, in data set [1], the “times sweeter than sucrose” value is recorded as 126 times.

As to `C[C@H](CC[C@@H](O[C@@H]1O[C@H](CO[C@@H]2O[C@H](CO)[C@@H](O)[C@H](O)[C@H]2O)[C@@H](O)[C@H](O)[C@H]1O[C@@H]1O[C@H](CO)[C@@H](O)[C@H](O)[C@H]1O)C(C)(C)O)[C@H]1CC[C@@]2(C)[C@@H]3CC=C4[C@@H](CC[C@H](O[C@@H]5O[C@H](CO[C@@H]6O[C@H](CO)[C@@H](O)[C@H](O)[C@H]6O)[C@@H](O)[C@H](O)[C@H]5O)C4(C)C)[C@]3(C)[C@H](O)C[C@]12C` [mogroside V], the “times sweeter than sucrose” value in data set [1] is given as 256-344 times.

As to `O=S(=O)([O-])NC1CCCCC1.[Na+]` [sodium cyclamate], the “times sweeter than sucrose” value in data set [1] is “about 30 times”.

`OC[C@H]1O[C@H](O[C@]2(CCl)O[C@H](CCl)[C@@H](O)[C@@H]2O)[C@H](O)[C@@H](O)[C@H]1Cl` [sucralose]: in data set [1], the “times sweeter than sucrose” value is “about 600 times”.
